In PubChem BioAssay AID2060498 (Molecular Pharmacology Branch, DTP, NCI, 2025):

Tested on: 171881-019-R-J1-PDC tumor spheroids, viability
Assay: Anticancer human tumor 171881-019-R-J1-PDC patient-derived invasive breast carcinoma cell line growth inhibition [GQUAD]
Settings: spheroids with HUVEC and MSC; for IC50: curve of first compound; for viability, T/C: stronger effect = lower value; active = viability on the fitted dose curve at most 10% of control; inactive = the rest
Method in brief: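 Tumor cells were grown as complex spheroids with HUVEC endothelial cells and mesenchymal stem cells as stroma. G-quadruplex stabilizers were combined with targeted agents over half-log dilutions from near the clinical Cmax, or from 10 microM.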

[1] = second compound 0.0316 µM, first compound 0.0316 µM
[2] = second compound 0.0316 µM, first compound 0.1 µM
[3] = second compound 0.0316 µM, first compound 0.316 µM
[4] = second compound 0.0316 µM, first compound 1 µM
[5] = second compound 0.0316 µM, first compound 3.16 µM
[6] = second compound 0.0316 µM, first compound 10 µM
[7] = second compound 0.1 µM, first compound 0.0316 µM
[8] = second compound 0.1 µM, first compound 0.1 µM
[9] = second compound 0.1 µM, first compound 0.316 µM
[10] = second compound 0.1 µM, first compound 1 µM
[11] = second compound 0.1 µM, first compound 3.16 µM
[12] = second compound 0.1 µM, first compound 10 µM
[13] = second compound 0.316 µM, first compound 0.0316 µM
[14] = second compound 0.316 µM, first compound 0.1 µM
[15] = second compound 0.316 µM, first compound 0.316 µM
[16] = second compound 0.316 µM, first compound 1 µM
[17] = second compound 0.316 µM, first compound 3.16 µM
[18] = second compound 0.316 µM, first compound 10 µM
[19] = second compound 1 µM, first compound 0.0316 µM
[20] = second compound 1 µM, first compound 0.1 µM
[21] = second compound 1 µM, first compound 0.316 µM
[22] = second compound 1 µM, first compound 1 µM
[23] = second compound 1 µM, first compound 3.16 µM
[24] = second compound 1 µM, first compound 10 µM
[25] = second compound 3.16 µM, first compound 0.0316 µM
[26] = second compound 3.16 µM, first compound 0.1 µM
[27] = second compound 3.16 µM, first compound 0.316 µM
[28] = second compound 3.16 µM, first compound 1 µM
[29] = second compound 3.16 µM, first compound 3.16 µM
[30] = second compound 3.16 µM, first compound 10 µM
[31] = second compound 10 µM, first compound 0.0316 µM
[32] = second compound 10 µM, first compound 0.1 µM
[33] = second compound 10 µM, first compound 0.316 µM
[34] = second compound 10 µM, first compound 1 µM
[35] = second compound 10 µM, first compound 3.16 µM
[36] = second compound 10 µM, first compound 10 µM
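Note: spheroids exposed to compounds for 7 days.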
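Throughout, for viability, T/C: 100% = DMSO vehicle control viability.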

C#Cc1c(F)ccc2cc(O)cc(-c3ncc4c(N5CC6CCC(C5)N6)nc(OCC56CCCN5CC(F)C6)nc4c3F)c12 (stereo unspecified) + Cc1[nH]c2ccc(F)cc2c1-c1nc2c3cccnc3c3ncccc3c2[nH]1
0.282 µM: IC50 (second compound 0.316 µM)
0.599 µM: IC50 (second compound 0.0316 µM)
0.0449 µM: IC50 (second compound 1 µM)
inactive: viability, T/C [1] 103% | viability, T/C [2] 69.3% | viability, T/C [3] 60.6% | viability, T/C [4] 42.9% | viability, T/C [5] 24.6% | viability, T/C [7] 92.8% | viability, T/C [8] 75.1% | viability, T/C [9] 59% | viability, T/C [10] 41.2% | viability, T/C [11] 25.1% | viability, T/C [13] 82.7% | viability, T/C [14] 62.3% | viability, T/C [15] 46.7% | viability, T/C [16] 31% | viability, T/C [17] 30% | viability, T/C [19] 55.6% | viability, T/C [20] 39.8% | viability, T/C [21] 36.8% | viability, T/C [22] 23.4% | viability, T/C [23] 22.9% | viability, T/C [31] 23.8% | viability, T/C [32] 27.4% | viability, T/C [33] 15.8% | viability, T/C [34] 15%
0.573 µM: IC50 (second compound 0.1 µM)
active: viability, T/C [6] 7.54% | viability, T/C [12] 6.93% | viability, T/C [18] 4.2% | viability, T/C [24] 0.29% | viability, T/C [25] 6.7% | viability, T/C [26] 3.48% | viability, T/C [27] 3.47% | viability, T/C [28] 2.21% | viability, T/C [29] 1.89% | viability, T/C [30] 0.17% | viability, T/C [35] 6.1% | viability, T/C [36] 0.16%
< 0.0316 µM: IC50 (second compound 3.16 µM) | IC50 (second compound 10 µM)

C=CCn1c(=O)c2cnc(Nc3ccc(N4CCN(C)CC4)cc3)nc2n1-c1cccc(C(C)(C)O)n1 + Cc1[nH]c2ccc(F)cc2c1-c1nc2c3cccnc3c3ncccc3c2[nH]1
active: viability, T/C [26] 5.61% | viability, T/C [27] 5.52% | viability, T/C [28] 4.19% | viability, T/C [29] 5.08% | viability, T/C [30] 4.35%
0.37 µM: IC50 (second compound 0.316 µM)
inactive: viability, T/C [1] 91.2% | viability, T/C [2] 94% | viability, T/C [3] 77% | viability, T/C [4] 31.3% | viability, T/C [5] 21.4% | viability, T/C [6] 23.4% | viability, T/C [7] 103% | viability, T/C [8] 86% | viability, T/C [9] 68.1% | viability, T/C [10] 36.7% | viability, T/C [11] 20.5% | viability, T/C [12] 23.2% | viability, T/C [13] 78.3% | viability, T/C [14] 65.4% | viability, T/C [15] 56% | viability, T/C [16] 28.1% | viability, T/C [17] 23.1% | viability, T/C [18] 25% | viability, T/C [19] 68.1% | viability, T/C [20] 51.4% | viability, T/C [21] 42.5% | viability, T/C [22] 25.5% | viability, T/C [23] 23.4% | viability, T/C [24] 21.3% | viability, T/C [25] 11.4% | viability, T/C [31] 43.9% | viability, T/C [32] 30.7% | viability, T/C [33] 23.1% | viability, T/C [34] 17.5% | viability, T/C [35] 15.7% | viability, T/C [36] 13.6%
0.624 µM: IC50 (second compound 0.0316 µM)
0.132 µM: IC50 (second compound 1 µM)
< 0.0316 µM: IC50 (second compound 3.16 µM) | IC50 (second compound 10 µM)
0.592 µM: IC50 (second compound 0.1 µM)

CC(=O)O[C@H]1C(=O)[C@@]2(C)[C@H]([C@H](OC(=O)c3ccccc3)[C@]3(O)C[C@H](OC(=O)[C@H](O)[C@@H](NC(=O)c4ccccc4)c4ccccc4)C(C)=C1C3(C)C)[C@]1(OC(C)=O)CO[C@@H]1C[C@@H]2O + Cc1[nH]c2ccc(F)cc2c1-c1nc2c3cccnc3c3ncccc3c2[nH]1
inactive: viability, T/C [1] 52.2% | viability, T/C [2] 32.3% | viability, T/C [3] 35.5% | viability, T/C [4] 30.8% | viability, T/C [5] 28.9% | viability, T/C [6] 30.1% | viability, T/C [7] 52.5% | viability, T/C [8] 33.2% | viability, T/C [9] 29.5% | viability, T/C [10] 31% | viability, T/C [11] 28.3% | viability, T/C [12] 28.7% | viability, T/C [13] 50.2% | viability, T/C [14] 35.5% | viability, T/C [15] 28.8% | viability, T/C [16] 29.5% | viability, T/C [17] 29.7% | viability, T/C [18] 26.8% | viability, T/C [19] 41.2% | viability, T/C [20] 30.2% | viability, T/C [21] 32.1% | viability, T/C [22] 24.9% | viability, T/C [23] 29.7% | viability, T/C [24] 24.6% | viability, T/C [31] 27.3% | viability, T/C [32] 25.1% | viability, T/C [33] 17.3% | viability, T/C [34] 21.1% | viability, T/C [35] 23.2% | viability, T/C [36] 18.3%
active: viability, T/C [25] 6.75% | viability, T/C [26] 4.71% | viability, T/C [27] 4.42% | viability, T/C [28] 3.51% | viability, T/C [29] 5.16% | viability, T/C [30] 3.23%
0.0322 µM: IC50 (second compound 0.316 µM)
< 0.0316 µM: IC50 (second compound 0.0316 µM) | IC50 (second compound 1 µM) | IC50 (second compound 3.16 µM) | IC50 (second compound 10 µM)
0.0368 µM: IC50 (second compound 0.1 µM)
